The values below come from ChEMBL document CHEMBL4387743, “Design, synthesis and structure activity relationships of indazole and indole derivatives as potent glucagon receptor antagonists” (Bioorg Med Chem Lett, 2019).

One data set deals with Glucagon receptor (Homo sapiens, UniProt P47871). The experiment in a line: Antagonist activity at full length human recombinant GCGR transfected in HEK293 cells assessed as inhibition of glucagon-stimulated cAMP by LANCE assay. The class given is functional, cell-based.
Data set [1] is described as follows: Cmax in C57 black mouse at 20 mg/kg, po. Format: ADME, organism-based. More on the design: dose 20 mg/kg, route oral. The note with it: in vivo.
A short description of data set [2]: Clearance in C57 black mouse at 5 mg/kg, iv. The class given is ADME, organism-based. As to conditions: in vivo.
A short description of data set [3]: Volume of distribution at steady state in C57 black mouse at 5 mg/kg, iv. Format: ADME, organism-based. As to conditions: in vivo, read-out: Vdss.
Data set [4] in a line: Elimination half life in C57 black mouse at 20 mg/kg, po. As to conditions: in vivo, read-out: beta t1/2 (converted). The class given is ADME, organism-based.
The nature of data set [5]: Elimination half life in C57 black mouse at 5 mg/kg, iv. Format: ADME, organism-based. The note with it: in vivo, read-out: beta t1/2 (converted).
The nature of data set [6]: AUClast in C57 black mouse at 20 mg/kg, po. The class given is ADME, organism-based. Details: dose 20 mg/kg, time 0 - last, route oral. The note with it: in vivo.
The nature of data set [7]: Oral bioavailability in C57 black mouse at 20 mg/kg. The class given is ADME, organism-based. As to conditions: in vivo.
A short description of data set [8]: Clearance in Sprague Dawley rat at 2 mg/kg, iv. The class given is ADME, organism-based. As to conditions: in vivo.
A short description of data set [9]: Cmax in Sprague Dawley rat at 10 mg/kg, po. The class given is ADME, organism-based. More on the design: dose 10 mg/kg, route oral. As to conditions: in vivo.
Data set [10] can be described thus: Volume of distribution at steady state in Sprague Dawley rat at 2 mg/kg, iv. Format: ADME, organism-based. The note with it: in vivo, read-out: Vdss.
The nature of data set [11]: AUClast in Sprague Dawley rat at 10 mg/kg, po. More on the design: dose 10 mg/kg, route oral, time 0 - last. As to conditions: in vivo. The class given is ADME, organism-based.
A short description of data set [12]: Oral bioavailability in Sprague Dawley rat at 10 mg/kg. Format: ADME, organism-based. The note with it: in vivo.
Data set [13] can be described thus: Elimination half life in Sprague Dawley rat at 2 mg/kg, iv. The class given is ADME, organism-based. As to conditions: in vivo, read-out: beta t1/2 (converted).
The nature of data set [14]: Elimination half life in Sprague Dawley rat at 10 mg/kg, po. Format: ADME, organism-based. As to conditions: in vivo, read-out: beta t1/2 (converted).

Chain of Glucagon receptor (P47871 whole entry): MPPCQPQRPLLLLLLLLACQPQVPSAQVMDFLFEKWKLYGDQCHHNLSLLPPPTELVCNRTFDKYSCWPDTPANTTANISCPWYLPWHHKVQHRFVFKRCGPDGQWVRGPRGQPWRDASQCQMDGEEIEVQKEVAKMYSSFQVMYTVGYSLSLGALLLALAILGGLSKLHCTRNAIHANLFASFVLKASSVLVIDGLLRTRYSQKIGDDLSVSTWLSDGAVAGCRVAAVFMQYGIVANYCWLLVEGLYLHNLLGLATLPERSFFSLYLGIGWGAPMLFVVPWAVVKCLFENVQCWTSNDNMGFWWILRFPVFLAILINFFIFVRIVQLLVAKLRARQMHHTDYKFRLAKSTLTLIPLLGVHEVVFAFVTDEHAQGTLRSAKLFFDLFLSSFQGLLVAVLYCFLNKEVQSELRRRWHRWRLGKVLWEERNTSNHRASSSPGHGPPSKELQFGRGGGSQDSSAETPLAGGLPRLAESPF

As to `Cc1cc(-c2ccc(C(C)(C)C)cc2)cc2cn(C(CC(C)C)c3ccc(C(=O)NCCC(=O)O)cc3)nc12` (racemic), the Ki on Glucagon receptor was 1340 nM.

Take `CC(C)CC(c1ccc(C(=O)NCCC(=O)O)cc1)n1ncc2cc(-c3cc(Cl)cc(Cl)c3)ccc21` (racemic): the Ki on Glucagon receptor amounted to 1650 nM.

As to `CC(C)CC(c1ccc(C(=O)NCCC(=O)O)cc1)n1ccc2cc(-c3ccc(C(C)(C)C)cc3)ccc21` (racemic), the Ki at Glucagon receptor came to 110 nM.

Turning to `Cc1cc(C(F)(F)F)ccc1-c1cc2cnn(C(CC(C)C)c3ccc(C(=O)NCCC(=O)O)nc3)c2cc1C` (racemic), the Cmax in [1] worked out at 11.1 µM. In data set [2], this molecule displayed a clearance of 4.83 mL/min/kg. The Vd in data set [3] came to 1.85 L/kg. Moreover, the results for the half-life in data set [4] and in [5] were 288 min and 300 min, respectively. Further, the AUC(0-t) in data set [6] stood at 111 µM·h. The bioavailability in data set [7] worked out at 94.7%.

Regarding `Cc1cc(C(F)(F)F)ccc1-c1ccc2c(ccn2C(CC(C)C)c2ccc(C(=O)NCCC(=O)O)cc2)c1` (racemic), on Glucagon receptor, the Ki was determined as 85 nM.

With `CC(C)CC(c1ccc(C(=O)NCCC(=O)O)cc1)n1ncc2cc(-c3ccc(N4CCOCC4)cc3)ccc21` (racemic), on Glucagon receptor, the Ki was found to be 3000 nM.

Take `CC(C)CC(c1ccc(C(=O)NCCC(=O)O)cc1)n1ncc2cc(-c3ccc(C(F)(F)F)cc3)ccc21` (racemic): on Glucagon receptor, the Ki stood at 260 nM.

`Cc1cc(C(F)(F)F)ccc1-c1ccc2nn(C(CC(C)C)c3ccc(C(=O)NCCC(=O)O)cc3)cc2c1Cl` (racemic) showed a Cmax in data set [1] of 18.5 µM. For the same molecule, the clearance in [2] came to 1.89 mL/min/kg. Besides, the Vd in data set [3] was determined as 0.9 L/kg. The Ki at Glucagon receptor was found to be 19 nM. Moreover, the half-life in data set [5] is 396 min. Also, the AUC(0-t) in data set [6] was 290 µM·h. The molecule also came in with a bioavailability in data set [7] of 97.7%.

Turning to `Cc1c(-c2ccc(C(F)(F)F)cc2Cl)ccc2nn(C(CC(C)C)c3ccc(C(=O)NCCC(=O)O)cc3)cc12` (racemic), the Ki on Glucagon receptor came to 29 nM.

On to `Cc1cc(-c2ccc(C(C)(C)C)cc2)cc2ccn(C(CC(C)C)c3ccc(C(=O)NCCC(=O)O)nc3)c12` (racemic), for which the Ki on Glucagon receptor was greater than 2600 nM.

Consider `CC(C)CC(c1ccc(C(=O)NCCC(=O)O)cc1)n1ncc2cc(-c3ccc(OC(F)(F)F)cc3)ccc21` (racemic), for which the Ki at Glucagon receptor lay in the range of 285 to 650 nM.

Take `Cc1cc(C(F)(F)F)ccc1-c1cc(F)c2c(ccn2C(CC(C)C)c2ccc(C(=O)NCCC(=O)O)cc2)c1C` (racemic): the Ki at Glucagon receptor is 700 nM.

For `CC(C)CC(c1ccc(C(=O)NCCC(=O)O)cc1)n1ncc2cc(-c3ccc(C(C)(C)C)cc3)ccc21` (racemic), the Ki on Glucagon receptor was found to be 125 nM.

Regarding `CC(C)CC(c1ccc(C(=O)NCCC(=O)O)cc1)n1ncc2cc(-c3ccc(N4CCN(C)CC4)cc3)ccc21` (racemic), the Ki on Glucagon receptor is 1250 nM.

For the molecule `CC(C)CC(c1ccc(C(=O)NCCC(=O)O)cc1)n1ccc2cc(-c3ccc(C(F)(F)F)cc3)ccc21` (racemic), the clearance turned out to be 12.2 mL/min/kg in data set [8] and 3.77 mL/min/kg in [2]. Moreover, the Cmax was found to be 8.1 µM in data set [1] and 1400 nM in [9]. Moreover, the Vd in data set [3] amounted to 1.05 L/kg; in [10] it was 3.65 L/kg. For the same molecule, the Ki at Glucagon receptor was found to be 115 nM. For the same molecule, the half-life was 234 min in data set [4], 222 min in [5], 276 min in data set [13] and 312 min in data set [14]. The values for the AUC(0-t) in data set [6] and in data set [11] were 116 µM·h and 14.3 µM·h, respectively. In addition, the bioavailability turned out to be 51.7% in [12] and 68.7% in data set [7].

The Ki is a dissociation constant, usually derived from enzyme kinetics or from competition with a known ligand. As a reminder, the Cmax is the peak of the concentration-time curve. By clearance is commonly meant a measure of how efficiently the substance is removed, as volume per time. Read a high clearance as a high capacity for elimination. One may read the AUC(0-t) as the area under the concentration-time curve up to a stated or last time point. Read a high AUC(0-t) as high exposure. As usually defined, the bioavailability is dose-corrected exposure relative to a reference, in per cent. Lower therefore signals poor availability.
